Measured values from PubChem BioAssay AID1963446 (Molecular Pharmacology Branch, DTP, NCI, 2024).
Where “and” joins values, the source holds several entries; their conditions need not be identical. Identical values can stand only once.

Test system: 993429-296-R-J1-PDC complex spheroid growth, percent test/control
Assay: Anticancer human tumor 993429-296-R-J1-PDC patient-derived uterine sarcoma cell line growth inhibition [Asc]
Conditions: for viability, T/C: stronger effect = lower value; active = viability on the fitted dose curve at most 10% of control; inactive = the rest
Procedure, shortened: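 Tumor cells were grown as multicellular spheroids with stromal HUVEC and mesenchymal stem cells and treated singly or in combination. Concentrations fell in half-log steps from the clinical Cmax, or from 10 microM where none was known.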

[1] = curve of first compound, second compound 0.03 µM
[2] = curve of first compound, second compound 0.0949 µM
[3] = curve of first compound, second compound 0.3 µM
[4] = curve of first compound, second compound 0.949 µM
[5] = curve of first compound, second compound 3 µM
[6] = second compound 0.03 µM, first compound 0.0316 µM
[7] = second compound 0.03 µM, first compound 0.1 µM
[8] = second compound 0.03 µM, first compound 0.316 µM
[9] = second compound 0.03 µM, first compound 1 µM
[10] = second compound 0.03 µM, first compound 3.16 µM
[11] = second compound 0.03 µM, first compound 10 µM
[12] = second compound 0.0949 µM, first compound 0.0316 µM
[13] = second compound 0.0949 µM, first compound 0.1 µM
[14] = second compound 0.0949 µM, first compound 0.316 µM
[15] = second compound 0.0949 µM, first compound 1 µM
[16] = second compound 0.0949 µM, first compound 3.16 µM
[17] = second compound 0.0949 µM, first compound 10 µM
[18] = second compound 0.3 µM, first compound 0.0316 µM
[19] = second compound 0.3 µM, first compound 0.1 µM
[20] = second compound 0.3 µM, first compound 0.316 µM
[21] = second compound 0.3 µM, first compound 1 µM
[22] = second compound 0.3 µM, first compound 3.16 µM
[23] = second compound 0.3 µM, first compound 10 µM
[24] = second compound 0.949 µM, first compound 0.0316 µM
[25] = second compound 0.949 µM, first compound 0.1 µM
[26] = second compound 0.949 µM, first compound 0.316 µM
[27] = second compound 0.949 µM, first compound 1 µM
[28] = second compound 0.949 µM, first compound 3.16 µM
[29] = second compound 0.949 µM, first compound 10 µM
[30] = second compound 3 µM, first compound 0.0316 µM
[31] = second compound 3 µM, first compound 0.1 µM
[32] = second compound 3 µM, first compound 0.316 µM
[33] = second compound 3 µM, first compound 1 µM
[34] = second compound 3 µM, first compound 3.16 µM
[35] = second compound 3 µM, first compound 10 µM
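Note: spheroids exposed to compounds for seven days.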

C=C(F)C(=O)N1CCN(c2nc(OCC3CCCN3C)nc3c2CCN(c2cccc4cccc(Cl)c24)C3)CC1CC#N (configuration not stated) + CCN1C(C(=O)NC23CCC(C(=O)O)(CC2)CC3)C(c2cccc(Cl)c2F)C2(C(=O)Nc3cc(Cl)ccc32)C12CCCCC2
inactive: viability, T/C [6] 97.6% | viability, T/C [7] 95.3% | viability, T/C [8] 103% | viability, T/C [9] 54% | viability, T/C [12] 98.4% | viability, T/C [13] 98.2% | viability, T/C [14] 85.2% | viability, T/C [15] 59.8% | viability, T/C [16] 8.82% | viability, T/C [18] 89.2% | viability, T/C [19] 104% | viability, T/C [20] 105% | viability, T/C [21] 50.5% | viability, T/C [24] 93% | viability, T/C [25] 88.3% | viability, T/C [26] 78.2% | viability, T/C [27] 63.9% | viability, T/C [30] 107% | viability, T/C [31] 86.2% | viability, T/C [32] 81.7% | viability, T/C [33] 78.1%
active: viability, T/C [10] 7.9% | viability, T/C [11] 0.1% | viability, T/C [17] 0.11% | viability, T/C [22] 10.4% | viability, T/C [23] 0.1% | viability, T/C [28] 5.95% | viability, T/C [29] 0.11% | viability, T/C [34] 7.46% | viability, T/C [35] 0.15%
1.2 µM: IC50 [2]
1.01 µM: IC50 [3]
1.3 µM: IC50 [4]
1.58 µM: IC50 [5]
1.1 µM: IC50 [1]

NC(=O)C(=Cn1cnc(-c2cc(C(F)(F)F)cc(C(F)(F)F)c2)n1)c1cncnc1
inactive: viability, T/C (compound 0.000949 µM) 94.3% and 102% and 110% | viability, T/C (compound 0.003 µM) 82.4% and 87.5% and 105% | viability, T/C (compound 0.00949 µM) 76.6% and 76% and 91.7% | viability, T/C (compound 0.03 µM) 41.9% and 34.6% and 60.8% | viability, T/C (compound 0.0949 µM) 17% and 17.8% and 30.1%
8.93% and 7.15% and 11.8%: viability, T/C (compound 0.3 µM)
0.023 µM and 0.0199 µM and 0.0454 µM: IC50 (curve of compound)

CCN1C(C(=O)NC23CCC(C(=O)O)(CC2)CC3)C(c2cccc(Cl)c2F)C2(C(=O)Nc3cc(Cl)ccc32)C12CCCCC2 (configuration not stated) + Cc1c(S(C)(=O)=O)c(-c2cc(F)cc(N3CCN(c4ccc(NS(=O)(=O)c5ccc(NC(CCN6CCC(C(=O)OCCCP(=O)(O)O)CC6)CSc6ccccc6)c(S(=O)(=O)C(F)(F)F)c5)cc4)CC3)c2)c(-c2ccc(Cl)cc2)n1C(C)C
1.27 µM: IC50 (curve of first compound, second compound 0.316 µM)
0.951 µM: IC50 (curve of first compound, second compound 1 µM)
> 3 µM: IC50 (curve of first compound, second compound 0.1 µM) | IC50 (curve of first compound, second compound 10 µM)
< 0.00949 µM: IC50 (curve of first compound, second compound 3.16 µM)
inactive: viability, T/C (second compound 0.1 µM, first compound 0.00949 µM) 88.1% | viability, T/C (second compound 0.1 µM, first compound 0.03 µM) 76.6% | viability, T/C (second compound 0.1 µM, first compound 0.0949 µM) 94.8% | viability, T/C (second compound 0.1 µM, first compound 0.3 µM) 66.4% | viability, T/C (second compound 0.1 µM, first compound 0.949 µM) 62.8% | viability, T/C (second compound 0.1 µM, first compound 3 µM) 58.5% | viability, T/C (second compound 0.316 µM, first compound 0.00949 µM) 63.1% | viability, T/C (second compound 0.316 µM, first compound 0.03 µM) 68.6% | viability, T/C (second compound 0.316 µM, first compound 0.0949 µM) 68.4% | viability, T/C (second compound 0.316 µM, first compound 0.3 µM) 55.5% | viability, T/C (second compound 0.316 µM, first compound 0.949 µM) 54.8% | viability, T/C (second compound 0.316 µM, first compound 3 µM) 39.9% | viability, T/C (second compound 1 µM, first compound 0.00949 µM) 57.6% | viability, T/C (second compound 1 µM, first compound 0.03 µM) 50.8% | viability, T/C (second compound 1 µM, first compound 0.0949 µM) 50.7% | viability, T/C (second compound 1 µM, first compound 0.3 µM) 61.4% | viability, T/C (second compound 1 µM, first compound 0.949 µM) 48% | viability, T/C (second compound 1 µM, first compound 3 µM) 28.4% | viability, T/C (second compound 3.16 µM, first compound 0.00949 µM) 47.1% | viability, T/C (second compound 3.16 µM, first compound 0.03 µM) 51.9% | viability, T/C (second compound 3.16 µM, first compound 0.0949 µM) 43.1% | viability, T/C (second compound 3.16 µM, first compound 0.3 µM) 44.4% | viability, T/C (second compound 3.16 µM, first compound 0.949 µM) 30.8% | viability, T/C (second compound 3.16 µM, first compound 3 µM) 22.3% | viability, T/C (second compound 10 µM, first compound 0.00949 µM) 81.3% | viability, T/C (second compound 10 µM, first compound 0.03 µM) 91.9% | viability, T/C (second compound 10 µM, first compound 0.0949 µM) 62.4% | viability, T/C (second compound 10 µM, first compound 0.3 µM) 67.7% | viability, T/C (second compound 10 µM, first compound 0.949 µM) 78.2% | viability, T/C (second compound 10 µM, first compound 3 µM) 51.1%

COc1c(OCCCN2CCOCC2)ccc2c3n(c(=NC(=O)c4cnc(N)nc4)nc12)CCN3 + CCN1C(C(=O)NC23CCC(C(=O)O)(CC2)CC3)C(c2cccc(Cl)c2F)C2(C(=O)Nc3cc(Cl)ccc32)C12CCCCC2
active: viability, T/C [7] 6.36% | viability, T/C [8] 4.17% | viability, T/C [9] 1.31% | viability, T/C [13] 7.8% | viability, T/C [14] 3.21% | viability, T/C [15] 1.48% | viability, T/C [20] 3.89% | viability, T/C [21] 1.15% | viability, T/C [25] 7.2% | viability, T/C [26] 4.24% | viability, T/C [27] 1.63% | viability, T/C [31] 7.7% | viability, T/C [32] 3.98% | viability, T/C [33] 1.49%
0.0261 µM: IC50 [2]
inactive: viability, T/C (second compound 0.03 µM, first compound 0.00316 µM) 94.7% | viability, T/C (second compound 0.03 µM, first compound 0.01 µM) 84.8% | viability, T/C [6] 40.2% | viability, T/C (second compound 0.0949 µM, first compound 0.00316 µM) 82.9% | viability, T/C (second compound 0.0949 µM, first compound 0.01 µM) 86.2% | viability, T/C [12] 43% | viability, T/C (second compound 0.3 µM, first compound 0.00316 µM) 96.6% | viability, T/C (second compound 0.3 µM, first compound 0.01 µM) 73.5% | viability, T/C [18] 44.7% | viability, T/C [19] 8.77% | viability, T/C (second compound 0.949 µM, first compound 0.00316 µM) 78.4% | viability, T/C (second compound 0.949 µM, first compound 0.01 µM) 89.8% | viability, T/C [24] 47.4% | viability, T/C (second compound 3 µM, first compound 0.00316 µM) 81.4% | viability, T/C (second compound 3 µM, first compound 0.01 µM) 70% | viability, T/C [30] 41%
0.0235 µM: IC50 [3]
0.0291 µM: IC50 [4]
0.0218 µM: IC50 [5]
0.0245 µM: IC50 [1]

O=C(c1ccc(F)c(F)c1Nc1ccc(I)cc1F)N1CC(O)([C@@H]2CCCCN2)C1
inactive: viability, T/C (compound 0.00316 µM) 94.3% and 75.1% and 94.5% | viability, T/C (compound 0.01 µM) 86% and 69.7% and 83.4% | viability, T/C (compound 0.0316 µM) 62.6% and 54.8% and 79.4% | viability, T/C (compound 0.1 µM) 41% and 34.7% and 70.9% | viability, T/C (compound 0.316 µM) 14.8% and 10.7% and 39.1%
0.0614 µM and 0.0426 µM and 0.212 µM: IC50 (curve of compound)
active: viability, T/C (compound 1 µM) 1.26% and 1.77% and 3.59%

C#Cc1c(F)ccc2cc(O)cc(-c3ncc4c(N5CC6CCC(C5)N6)nc(OCC56CCCN5CC(F)C6)nc4c3F)c12 (configuration not stated) + CCN1C(C(=O)NC23CCC(C(=O)O)(CC2)CC3)C(c2cccc(Cl)c2F)C2(C(=O)Nc3cc(Cl)ccc32)C12CCCCC2
5.55 µM: IC50 [3]
active: viability, T/C [11] 2.52% | viability, T/C [17] 8.51% | viability, T/C [23] 5.39% | viability, T/C [29] 1.38%
inactive: viability, T/C [6] 93.3% | viability, T/C [7] 96.5% | viability, T/C [8] 106% | viability, T/C [9] 84% | viability, T/C [10] 86.3% | viability, T/C [12] 96.1% | viability, T/C [13] 95.4% | viability, T/C [14] 83.8% | viability, T/C [15] 115% | viability, T/C [16] 86.2% | viability, T/C [18] 87.8% | viability, T/C [19] 95.3% | viability, T/C [20] 90.3% | viability, T/C [21] 117% | viability, T/C [22] 92.2% | viability, T/C [24] 104% | viability, T/C [25] 98.5% | viability, T/C [26] 107% | viability, T/C [27] 98.5% | viability, T/C [28] 89.8% | viability, T/C [30] 100% | viability, T/C [31] 96.7% | viability, T/C [32] 96.6% | viability, T/C [33] 109% | viability, T/C [34] 73.5% | viability, T/C [35] 12.8%
4.94 µM: IC50 [5]
5.32 µM: IC50 [4]
5.4 µM: IC50 [2]
5.14 µM: IC50 [1]

CCN1C(C(=O)NC23CCC(C(=O)O)(CC2)CC3)C(c2cccc(Cl)c2F)C2(C(=O)Nc3cc(Cl)ccc32)C12CCCCC2 (configuration not stated)
> 3 µM: IC50 (compound alone, run of 09/27/2022) | IC50 (curve of compound)
inactive: viability, T/C (compound 0.00949 µM) 92.7% and 92.5%
